Like-named read-outs stand apart in the source and are kept apart here. Starred links: 1 amine or outer side, 2 acyl side, 3 side chain; linkers in the order of their positions; H or OH if unused. Positions of bridges follow the written chain, without caps; N, C: chain ends. Non-standard residues stand in square brackets, D forms with d. Residues, ends and D or L forms follow the SMILES beside them. Chains are numbered I, II in the order given. Actinocin(9to1) = Cc1c2oc3c(C)ccc(C(=O)[*:1])c3nc-2c(C(=O)[*:2])c(N)c1=O; NMeV = CN[C@H](C(=O)O)C(C)C; Sar = CNCC(=O)O
Legend:
ConA cells = assay: Drug sensitivity (growth inhibition) assay, ConA cells; type: cell-based, mouse; details: for Change in sensitivity (x-fold): Compound 102 (10 μM), fold resistance; for Effect of Compound 102 on drug sensitivity of cell lines: ConA (Balb 3T3): P-gp-positive ConA cells, label = drug
Experimental: Drug sensitivity assays. To estimate drug-mediated growth inhibition, 10^3 cells were plated per well of 96-well plates, and incubated with a range of concentrations of drugs added 24 hours after plating. […] After elution by 1% SDS solution, optical density was determined on a Multiscan Ascent reader (Lybsystems, Helsinki, Finland) at 650 nm.

P-gp [1] = system: P-gp
Experimental: Drug sensitivity assays. To estimate drug-mediated growth inhibition, 10^3 cells were plated per well of 96-well plates, and incubated with a range of concentrations of drugs added 24 hours after plating. After 5 to […] of drug treatment, plates were fixed and stained using 2% methylene blue solution in 50% methanol. After elution by 1% SDS solution, optical density was determined on a Multiscan Ascent reader (Lybsystems, Helsinki, Finland) at 650 nm.
(§1) Drug accumulation and efflux assay. […] For drug efflux assay, cells after drug incubation were washed thoroughly with PBS, incubated in a drug-free media with or without compounds from the chemical library, and harvested at different time points for flow cytometric analysis (18).

P-gp [2] = assay: Daunorubicin accumulation in ConA cells; type: cell-based, mouse; details: for effect on daunorubicin accumulation: ConA cells, two hours with daunorubicin (500 ng/ml), flow cytometry (FIG. 8)
Experimental: Drug accumulation and efflux assay. […] For drug efflux assay, cells after drug incubation were washed thoroughly with PBS, incubated in a drug-free media with or without compounds from the chemical library, and harvested at different time points for flow cytometric analysis (18). […]
(§2) ConA cells were incubated two hours with Rho123 ([…]) or daunorubicin (500 ng/ml) in the presence of the identified compounds, and accumulation of the drugs was quantitated by flow cytometry.

P-gp [3] = assay: Rho123 accumulation in ConA cells; type: cell-based, mouse; set-up: effect on Rho123 efflux/accumulation: dose or concentration left out as unconfirmed; details: two hours with Rho123, flow cytometry (FIG. 8)
Experimental: Screening of a chemical library. Murine fibroblastoid cell line (ConA) was selected as the readout system for screening a chemical library for P-gp activators. […] Rho123, a classic fluorescent P-gp substrate that is detected easily using multichannel fluorimeter in living cells, was used as an efflux indicator. […] Primary screening was performed on ConA cells for compounds that interfere with Adr-induced activation of p53-responsive reporter LacZ gene as previously described (11). To identify P-gp modulators, all “hits” isolated after primary screening were tested for their ability to modulate cellular accumulation of Rho123. Con A cells grown in 96-well plates were incubated 4 hours with 0.5 μM Rho123 in combination with individual library compounds (2 μg/ml (2-5 μM)), and cell fluorescence was analyzed using fluorescent microscopy.
as §1, §2

mouse ConA cells = assay: DMBA sensitivity of mouse cells; type: cell-based
Experimental: The effect of the identified compounds on DMBA sensitivity of mouse cells also was tested. It has been reported that ABC type transporters (e.g., P-gp) are involved in the efflux of polycyclic aromatic hydrocarbon carcinogens from cells. The effect of the identified compounds on sensitivity of mouse cells to 7,12-dimethylbenz[a]anthracene (DMBA) was determined. […].

[4] = label = P-gp substrate drug, three groups

Row | Compound | cytotoxicity of the drug in the presence of Compound 102 (P-gp [1]) | Effect of Compound 102 on drug sensitivity of cell lines: ConA (Balb 3T3) (ConA cells) | effect on daunorubicin accumulation (P-gp [2]) | effect on Rho123 efflux/accumulation (P-gp [3]) | also measured
1 | Cc1c2oc3c(C)ccc(C(=O)N[C@@H]4C(=O)N[C@H](C(C)C)C(=O)N5CCC[C@H]5C(=O)N(C)CC(=O)N(C)[C@@H](C(C)C)C(=O)O[C@@H]4C)c3nc-2c(C(=O)N[C@@H]2C(=O)N[C@H](C(C)C)C(=O)N3CCC[C@H]3C(=O)N(C)CC(=O)N(C)[C@@H](C(C)C)C(=O)O[C@@H]2C)c(N)c1=O [Actinomycin D, actinomycin D] (I: T[dV]P[Sar][NMeV] / II: T[dV]P[Sar][NMeV]; ester I:1-I:C, II:1-II:C; linker I:N-II:N via Actinocin(9to1)) | do not change their cytotoxicity | – | – | – | Change in sensitivity (x-fold) (ConA cells; ConA cells): 1 x-fold; LD50 (ConA cells; ConA cells, drug alone): 20 ng/mL; LD50 comp (ConA cells; ConA cells, drug in the presence of Compound 102 (10 μM)): 20 ng/mL
2 | CN[C@H]1CCc2cc(OC)c(OC)c(OC)c2-c2ccc(OC)c(=O)cc21 [Colcemide, colcemid] | – | – | – | – | cytotoxicity of the drug in the presence of Compound 102 (P-gp [1]; [4]): do not change their cytotoxicity
3 | COc1cc2c(c(OC)c1OC)-c1ccc(OC)c(=O)cc1[C@@H](NC(C)=O)CC2 [Colchicine, colchicine] | – | S | – | – | –
4 | Cc1cc(C)n(CC(O)Cn2c3ccccc3c3ccccc32)n1 (centres unmarked) [Compound 2, 1-Carbazol-9-yl-3-(3,5-dimethyl-pyrazol-1-yl)-propan-2-ol] | – | – | weak influence | relatively effective | –
5 | Cc1cc(OCC(=O)Nc2ccc3nn(-c4ccccc4)nc3c2)cc(C)c1Cl [Compound 7, 2-(4-Chloro-3,5-dimethyl-phenoxy)-N-(2-phenyl-2H-benzotriazol-5-yl)-acetamide] | – | – | weak influence | relatively effective | –
6 | Cc1ccc2c(C)nc(N/C(N)=N/C(=O)Cc3ccc(Cl)cc3)nc2c1 [Compound 8, N-[2-(4-Chloro-phenyl)-acetyl]-N′-(4,7-dimethyl-quinazolin-2-yl)-guanidine] | – | – | weak influence | relatively effective | –
7 | COc1cc2cnc3c(c(Cc4ccccc4)nn3-c3ccccc3)c2cc1OC [Compound 9, 1-Benzyl-7,8-dimethoxy-3-phenyl-3H-pyrazolo[3,4-c]isoquinoline] | – | – | weak influence | relatively effective | –
8 | Cc1ccc(OCC(=O)Nc2ccc(O)c(-c3nc4ccccc4o3)c2)cc1 [Compound 10, N-(3-Benzooxazol-2-yl-4-hydroxy-phenyl)-2-p-tolyloxy-acetamide] | – | – | weak influence | relatively effective | –
9 | C=CCn1c2ccccc2n2cc(-c3ccccc3)nc12 [Compound 11, 8-Allyl-2-phenyl-8H-1,3a,8-triaza-cyclopenta[a]indene] | – | – | two to four times less pronounced effect | strong effect | protection of cells from cytotoxicity of DMBA (mouse ConA cells): strong protective effect
10 | COc1ccccc1-c1nc(Cc2ccc(Cl)cc2)no1 [Compound 12, 3-(4-Chloro-benzyl)-5-(2-methoxy-phenyl)-[1,2,4]oxadiazole] | – | – | – | – | stimulation of P-gp-mediated efflux of daunorubicin relative to Rho123 (P-gp [2]; ConA cells (FIG. 8)): more effective
11 | Nc1nc(SCCc2ccccc2)nc2sc3c(c12)CCCC3 [Compound 13, 2-Phenethylsulfanyl-5,6,7,8-tetrahydro-benzo[4,5]thieno[2,3-d]pyrimidin-4-ylamine] | – | – | two to four times less pronounced effect | strong effect | protection of cells from cytotoxicity of DMBA (mouse ConA cells): strong protective effect
12 | CCOC(=O)Cn1c2ccccc2c2nc3cc4ccccc4cc3nc21 [Compound 14, (5,12,13-Triaza-indeno[1,2-b]anthracen-13-yl)-acetic acid ethyl ester] | – | – | no effect | – | –
13 | Oc1ccccc1-c1nc(-c2ccccc2O)n(-c2ccccc2)n1 [Compound 15, 2,2′-(1-phenyl-1H-1,2,4-triazole-3,5-diyl)bis-phenol] | – | – | weak influence | relatively effective | –
14 | Cc1ccc(-c2nnc(-c3ccccc3Cl)o2)s1 [Compound 16, 2-(2-Chloro-phenyl)-5-(5-methyl-thiophen-2-yl)-[1,3,4]oxadiazole] | – | – | weak influence | relatively effective | protection of cells from cytotoxicity of DMBA (mouse ConA cells): strong protective effect
15 | COc1cccc2c1C(=O)c1c(O)c3c(c(O)c1C2=O)C[C@@](O)(C(C)=O)C[C@@H]3O[C@H]1C[C@H](N)[C@H](O)[C@H](C)O1 [Daunorubicin, daunorubicin] | less toxic | R | – | – | Change in sensitivity (x-fold) (ConA cells; ConA cells): 2.5 x-fold
16 | COc1cc([C@@H]2c3cc4c(cc3[C@@H](O[C@@H]3O[C@@H]5CO[C@@H](C)O[C@H]5[C@H](O)[C@H]3O)[C@H]3COC(=O)[C@H]23)OCO4)cc(OC)c1O [Etoposide, etoposide] | less toxic | Minor R | – | – | Change in sensitivity (x-fold) (ConA cells; ConA cells): 1.5 x-fold
17 | CCOc1ccc(-c2nc3ccc(-c4nc5ccc(N6CCN(C)CC6)cc5[nH]4)cc3[nH]2)cc1 [Hoechst 33342] | – | S? | – | – | cytotoxicity of the drug in the presence of Compound 102 (P-gp [1]; [4]): more potent
18 | COc1ccc(C[C@H](N)C(=O)N[C@H]2[C@@H](O)[C@H](n3cnc4c(N(C)C)ncnc43)O[C@@H]2CO)cc1 [Puromycin, puromycin] | do not change their cytotoxicity | – | – | – | Change in sensitivity (x-fold) (ConA cells; ConA cells): 1 x-fold
19 | CC(=O)O[C@H]1C(=O)[C@@]2(C)[C@H]([C@H](OC(=O)c3ccccc3)[C@]3(O)C[C@H](OC(=O)[C@H](O)[C@@H](NC(=O)c4ccccc4)c4ccccc4)C(C)=C1C3(C)C)[C@]1(OC(C)=O)CO[C@@H]1C[C@@H]2O [Taxol, taxol] | more potent | S | – | – | Change in sensitivity (x-fold) (ConA cells; ConA cells): 0.3 x-fold
20 | CC[C@]1(O)C[C@@H]2CN(CCc3c([nH]c4ccccc34)[C@@](C(=O)OC)(c3cc4c(cc3OC)N(C)[C@H]3[C@@](O)(C(=O)OC)[C@H](OC(C)=O)[C@]5(CC)C=CCN6CC[C@]43[C@@H]65)C2)C1 [Vinblastine, vinblastine] | more potent | S | – | – | Change in sensitivity (x-fold) (ConA cells; ConA cells): 0.5 x-fold
21 | CC[C@]1(O)C[C@H]2CN(CCc3c([nH]c4ccccc34)[C@@](C(=O)OC)(c3cc4c(cc3OC)N(C=O)[C@H]3[C@@](O)(C(=O)OC)[C@H](OC(C)=O)[C@]5(CC)C=CCN6CC[C@]43[C@@H]65)C2)C1 [Vincristine, vincristine] | more potent | S | – | – | Change in sensitivity (x-fold) (ConA cells; ConA cells): 0.5 x-fold
22 | C=C1[C@@H](C)[C@H]2[C@H](Cc3ccccc3)NC(=O)[C@]23[C@H](OC(C)=O)/C=C/[C@@](C)(O)C(=O)[C@@H](C)C/C=C/[C@H]3[C@@H]1O [cytochalasin D] | – | – | – | – | cytotoxicity of the drug in the presence of Compound 102 (P-gp [1]; [4]): do not change their cytotoxicity
23 | Rhodamine 123 | less toxic | R | – | – | –
24 | gramicidin D [Gramicidine D] | – | S | – | – | cytotoxicity of the drug in the presence of Compound 102 (P-gp [1]; [4]): more potent
